{"source": "patent US10588280B2", "about": "“Aided delivery of plant treatment agents” (Monsanto Technology LLC, priority 2014, dated 2020)", "tested_on": "haploid corn seedlings (SAM)", "test": "Example 3: serial (submerged then unsubmerged) centrifugation with colchicine, survival and doubling success", "type": "in vivo", "conditions": "for DE / Fert. Success / Initial Survival / Poll. Success: 1000 ppm colchicine, submerged 50 g 3 min then unsubmerged 335 g 3 min", "excerpt": "Seeds of 5 different F1 hybrid-derived haploid corn lines were randomly-selected and germinated in a greenhouse. The resulting seedlings were removed from soil or growth media at the V1-V3 growth stage and the soil or growth media rinsed from the plants with water. Seedlings were then aligned and assembled along with several rods in a bundled PCS similar to what is shown in FIG. 9 and a plant treatment solution comprising 1000 ppm colchicine was poured into the container such that the solution submerged the SAM of each plant and then the entire sample was centrifuged at 50 g for 3 min while the SAMs remained submerged in the plant treatment agent.\nFollowing the first centrifugation, the plant treatment solution was decanted and the seedlings subjected to an unsubmerged centrifugation at 335 g for 3 min.\nFollowing the second centrifugation, the plants were removed from the centrifugation container and rinsed with water to remove any remaining colchicine solution, and then recovered and tended in a light, humidity, and temperature-controlled greenhouse for several days before being transplanted to a nursery greenhouse.\nThe control sample received no colchicine exposure, but was otherwise handled identically as the experimental samples. During the subsequent growth of the plants, the initial survival, pollination success, fertilization success, final survival, and doubling efficiency was determined within each sample as described in Example 2.", "data": [{"smiles": "COc1cc2c(c(OC)c1OC)-c1ccc(OC)c(=O)cc1[C@@H](NC(C)=O)CC2", "note": "[colchicine]", "values": [{"measurement": "DE", "setting": "Ave: of five lines", "value": 72, "unit": "%"}, {"measurement": "Fert. Success", "setting": "Ave: of five lines", "value": 94, "unit": "%"}, {"measurement": "Initial Survival", "setting": "Ave: of five lines", "value": 93, "unit": "%"}, {"measurement": "Poll. Success", "setting": "Ave: of five lines", "value": 85, "unit": "%"}, {"measurement": "DE", "setting": "line F1004", "value": 57, "unit": "%"}, {"measurement": "Fert. Success", "setting": "line F1004", "value": 100, "unit": "%"}, {"measurement": "Initial Survival", "setting": "line F1004", "value": 93, "unit": "%"}, {"measurement": "Poll. Success", "setting": "line F1004", "value": 62, "unit": "%"}, {"measurement": "DE", "setting": "line F1045", "value": 75, "unit": "%"}, {"measurement": "Fert. Success", "setting": "line F1045", "value": 100, "unit": "%"}, {"measurement": "Initial Survival", "setting": "line F1045", "value": 100, "unit": "%"}, {"measurement": "Poll. Success", "setting": "line F1045", "value": 75, "unit": "%"}, {"measurement": "DE", "setting": "line F1095", "value": 80, "unit": "%"}, {"measurement": "Fert. Success", "setting": "line F1095", "value": 92, "unit": "%"}, {"measurement": "Initial Survival", "setting": "line F1095", "value": 100, "unit": "%"}, {"measurement": "Poll. Success", "setting": "line F1095", "value": 87, "unit": "%"}, {"measurement": "DE", "setting": "line F1118", "value": 60, "unit": "%"}, {"measurement": "Fert. Success", "setting": "line F1118", "value": 86, "unit": "%"}, {"measurement": "Initial Survival", "setting": "line F1118", "value": 70, "unit": "%"}, {"measurement": "Poll. Success", "setting": "line F1118", "value": 100, "unit": "%"}, {"measurement": "DE", "setting": "line F1900", "value": 90, "unit": "%"}, {"measurement": "Fert. Success", "setting": "line F1900", "value": 90, "unit": "%"}, {"measurement": "Initial Survival", "setting": "line F1900", "value": 100, "unit": "%"}, {"measurement": "Poll. Success", "setting": "line F1900", "value": 100, "unit": "%"}, {"measurement": "individuals that produced pollen and silks", "setting": "minimum over all five inbred samples receiving the experimental treatment", "value": "at least 62%"}, {"measurement": "increase in overall DE as compared to controls", "setting": "samples receiving serial centrifugation with 1000 ppm colchicine vs controls", "value": 67, "unit": "%"}]}]}
